Reference: ChEMBL document CHEMBL1154517, “Antimitotic activity of two macrocyclic bis(bibenzyls), isoplagiochins A and B from the Liverwort Plagiochila fruticosa” (Bioorg Med Chem Lett, 2009)

Experiment: Inhibition of tubulin polymerization

| SMILES | IC50 | Activity |
| --- | --- | --- |
| Oc1ccc2c(c1)CCc1ccc(O)c(c1)-c1cc(ccc1O)CCc1cccc(c1)O2 [DIHYDROISOPLAGIOCHIN A] | > 100 µM |  |
| Oc1ccc2cc1-c1cc(ccc1O)CCc1c(ccc(O)c1O)Oc1cccc(c1)CC2 [DIHYDROISOPLAGIOCHIN B] | > 100 µM |  |
| Oc1ccc2c(c1)CCc1ccc(O)c(c1)-c1cc(ccc1O)/C=C\c1cccc(c1)O2 [ISOPLAGIOCHIN A] | 50 µM |  |
| Oc1ccc2cc1-c1cc(ccc1O)CCc1c(ccc(O)c1O)Oc1cccc(c1)/C=C\2 [ISOPLAGIOCHIN B] | 25 µM | Dose-dependent effect |
| CC[C@]1(O)C[C@@H]2CN(CCc3c([nH]c4ccccc34)[C@@](C(=O)OC)(c3cc4c(cc3OC)N(C)[C@H]3[C@@](O)(C(=O)OC)[C@H](OC(C)=O)[C@]5(CC)C=CCN6CC[C@]43[C@@H]65)C2)C1 [VINBLASTINE] | 2 µM |  |
